# Measurements taken from patent publication US20120189677A1, “FORMULATIONS” (priority 2011, published 2012).
# Where two headings read alike, the source gives them in different places.
# Legend:
# [1] = Turbidity of surfactant added to standard maltodextrin/lipid emulsion at room temperature (Example 1); type: physicochemical; conditions: surfactant 7% w/w in emulsion of 2% C* Dry MD 01958 maltodextrin and 1% S-75 lipid
# [2] = approximate average of manufacturer and literature values; cited from earlier work
# [3] = HLB values of surfactants (manufacturer/literature or equation); type: physicochemical; conditions: from HLB=20[1-(S/A)], S 45.5, A 276
# [4] = Clarity of surfactant/lipid compositions with or without maltodextrin (Example 2); type: physicochemical; conditions: surfactant at % given in row, S-75 lipid, low temperature process; for Clarity with maltodextrin (2%): 2% maltodextrin; for Clarity without maltodextrin: no maltodextrin
# [5] = Particle size analysis (FIG. 3); type: physicochemical; conditions: Brij35P 7.0% w/w, S-75 1% w/w, maltodextrin 2% w/w; 25:2 dilution
Substance,Turbidity (FNU) [1] [FNU],HLB [2],further results
Octoxynol-5,>150,10.4,
Octoxynol-16,7.55,,
Polysorbate-20 [Polysorbate 20],,,HLB [3]: 16.7; Clarity with maltodextrin (2%) [4]: 59.5 FNU; Clarity without maltodextrin [4]: 79.5 FNU
Laureth-23 [Brij 35P],,,Clarity with maltodextrin (2%) [4]: 128.1 FNU; Clarity without maltodextrin [4]: 184 FNU; polydispersity [5]: 0.625; principal/dominant particle size [5]: 8.68 nm
Nonoxynol-40,>150,17.8,
Nonoxynol-9,8.87,12.9,
Octoxynol-30,>150,17.1,
Octoxynol-9,7.75,,
Nonoxynol-10,8.29,13.6,
Octoxynol-12,4.32,14.5,
Octoxynol-40,>150,17.9,
